The source of these data is patent publication US5302586A, “Phosphonomethyl-imidazo[1,2-a]pyrimidine-2-carboxylic acid compounds for treatment of neurotoxic injury” (G. D. Searle & Co., priority 1992, dated 1994).

Broadly, the Ki is a measure of affinity in units of concentration, obtained from inhibition or displacement. Low values mean higher affinity, high ones lower affinity.

Assay [1] addresses NMDA receptor site (NMDA-specific L-[^3 H]glutamate recognition site). Description: NMDA-Selective Glutamate Binding Assay (L-[^3 H]glutamate, synaptic plasma membranes). Details: species or system rat. The procedure: Synaptic plasma membranes (SPM) were prepared as previously described [Monohan, J. B. and Michel, J., "Identification and Characterization of an N-methyl-D-aspartate-specific L[^3 H]glutamate Recognition Site in Synaptic Plasma Membranes, J. Neurochem., 48, 1699-1708 (1987)]. The SPM were stored at a concentration of 10-15 mg/ml in 0.32M sucrose, 0.5 mM EDTA, 1 mM MgSO4, 5 mM Tris/SO4, pH 7.4, under liquid nitrogen. The identity and purity of the subcellular fractions were confirmed by both electron microscopy and marker enzymes. Protein concentrations were determined by using a modification of the method of Lowry [Ohnishi, S. T. and Barr, J. K., "A Simplified Method of Quantitating Proteins Using the Biuret and Phenol Reagents", Anal. Biochem., 86, 193-197 (1978)]. The SPM were treated identically for the [^3 H]AMPA (QUIS), [^3 H]kainate and sodium-dependent L-[^3 H]-glumatate binding assays. […] Beckman MP scintillation cocktail containing 7 mL/1 acetic acid was then added and the samples counted on a Beckman LS 5800 or 3801 liquid scintillation counter with automatic corrections for quenching and counting efficiency. […] Radioligand binding to the synaptic plasma membranes was analyzed using Scatchard and Hill transformations and the Ki values of the compounds determined using logit-log transformations. […]

For assay [2], the target named is [^3 H]MK-801 binding, rat SPM (NMDA receptor). The assay can be described thus: [^3 H]MK-801 Binding assay (Triton X-100 treated rat synaptic plasma membranes). To be noted: 5.0 nM [^3 H]MK-801, L-glutamate 10.0 nM, 25° C., 30 min, pH 7.4. How it is done:
Modulation of [^3 H]MK-801 binding was performed using Triton X-100 (0.04% v/v) treated rat SPM that had been extensively washed. Assay incubations were at 25° C. for 30 min. and contained 5.0 nM [^3 H]MK-801, L-glutamate (10.0 nM), and various concentrations of the tested compound of the invention in 50 mM Tris/acetate, pH 7.4. The assay was stopped by rapid filtration, using Brandel MB-48 Harvester, through Whatman GF/B filters treated with 0.05% polyethylenimine and the samples washed four times with 2.0 mL cold buffer. The radioactivity associated with the filter was determined by liquid scintillation spectrometry. Nonspecific binding was defined using 60 μM MK-801. IC50 were determined using a logit-log transformation of the binding data.

A further assay has as its system NMDA. The conditions noted are these: CPP binding to rat brain hippocampal tissue, Murphy et al 1987; cited from earlier work.

For the compound `O=C(O)c1cn2c(CP(=O)(O)O)ccnc2n1` [Example 1, 5-Phosphonomethyl-imidazo[1,2-a]pyrimidine-2-carboxylic acid], the Ki in assay [1] ([^3 H]GLU, Triton X-100 treated SPM, 50 mM Tris/acetate pH 7.4, 0°-4° C., 10 min) was 8.8 µM; in assay [2] it was 4.6 µM. With `O=C(O)C1CN(CCCP(=O)(O)O)CCN1` (stereo not shown) [CPP, 3-(2-carboxypiperazin-4-yl)propyl-1-phosphonic acid], the “NMDA antagonist potency and selectivity” value with NMDA is “potent and selective NMDA antagonist”.

For `O=C(O)c1cn2ccc(CP(=O)(O)O)nc2n1` [Example 2, 7-phosphonomethyl-imidazo[1,2-a]pyrimidine-2-carboxylic acid], the “[^3 H]GLU % inhibition” value in assay [1] (@ 10 μM) came to 14%.
